According to ChEMBL document CHEMBL1201862, “PubChem BioAssay data set” (2004):
“And” between values parts separate entries of the source, which are not always exact repeats. Equal entries are not always repeated.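 Each compound was tested at five concentrations against cells in 96-well plates for 48 hours. GI50 = concentration required for 50% inhibition of growth.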 The source made the active and inactive calls. No stated cut-off is given here; in the data, active = GI50 up to about 1.1 µM and inactive = higher.

Legend:
Experiment in all cases: NCI anticancer screen, dose series, 48 h
CAKI-1 = tested on: CAKI-1
HOP-62 = tested on: HOP-62
XF498 = tested on: XF498
Malme-3M = tested on: Malme-3M
HCC 2998 = tested on: HCC 2998
KM-20L2 = tested on: KM-20L2
M19-MEL = tested on: M19-MEL
EKVX = tested on: EKVX
BT-549 = tested on: BT-549
MCF7 = tested on: MCF7
HT-29 = tested on: HT-29
Hs-578T = tested on: Hs-578T
SN12C = tested on: SN12C
RXF 393 = tested on: RXF 393
HL-60 = tested on: HL-60
SNB-19 = tested on: SNB-19
NCI-H460 = tested on: NCI-H460
OVCAR-5 = tested on: OVCAR-5
RPMI-8226 = tested on: RPMI-8226
A498 = tested on: A498
NCI-H522 = tested on: NCI-H522
HOP-92 = tested on: HOP-92
SK-OV-3 = tested on: SK-OV-3
MDA-MB-231 = tested on: MDA-MB-231
MOLT-4 = tested on: MOLT-4
K562 = tested on: K562
SF-539 = tested on: SF-539
T47D = tested on: T47D
LXFL 529 = tested on: LXFL 529
M14 = tested on: M14
MDA-N = tested on: MDA-N
NCI-H226 = tested on: NCI-H226
CCRF-CEM = tested on: CCRF-CEM
MDA-MB-435 = tested on: MDA-MB-435
COLO 205 = tested on: COLO 205
OVCAR-4 = tested on: OVCAR-4
DLD-1 = tested on: DLD-1
OVCAR-8 = tested on: OVCAR-8
DMS-114 = tested on: DMS-114
SK-MEL-5 = tested on: SK-MEL-5
SK-MEL-2 = tested on: SK-MEL-2
NCI/ADR-RES = tested on: NCI/ADR-RES
HOP-18 = tested on: HOP-18
U-251 = tested on: U-251
UO-31 = tested on: UO-31
NCI-H23 = tested on: NCI-H23
ACHN = tested on: ACHN
SNB-78 = tested on: SNB-78
A549 = tested on: A549
OVCAR-3 = tested on: OVCAR-3
KM12 = tested on: KM12
DU-145 = tested on: DU-145
HCT-116 = tested on: HCT-116
SR = tested on: SR
786-0 = tested on: 786-0
SF-295 = tested on: SF-295
PC-3 = tested on: PC-3
LOX IMVI = tested on: LOX IMVI
SK-MEL-28 = tested on: SK-MEL-28
UACC-62 = tested on: UACC-62
SNB-75 = tested on: SNB-75
DMS-273 = tested on: DMS-273
UACC-257 = tested on: UACC-257
HCT-15 = tested on: HCT-15
SW-620 = tested on: SW-620

Cc1c(Cl)cccc1NC(=O)CC1Sc2ccccc2NC1=O (configuration not stated)
GI50 (CAKI-1): 36.3 µM (inactive) and 42.2 µM (inactive)
GI50 (HOP-62): 10.1 µM (inactive) and 18.2 µM (inactive)
GI50 (XF498): 22.9 µM (inactive) and 22.8 µM (inactive)
GI50 (Malme-3M): 19.5 µM (inactive) and 18.5 µM (inactive)
GI50 (HCC 2998): 14.3 µM (inactive) and 12 µM (inactive)
GI50 (KM-20L2): 24.6 µM (inactive) and 22.4 µM (inactive)
GI50 (M19-MEL): 46.9 µM (inactive) and 32 µM (inactive)
GI50 (EKVX): 46.9 µM (inactive) and 49.8 µM (inactive)
GI50 (BT-549): 27000 nM (inactive)
GI50 (MCF7): 11 µM (inactive)
GI50 (HT-29): 13900 nM (inactive)
GI50 (Hs-578T): 2990 nM (inactive)
GI50 (SN12C): 25.1 µM (inactive) and 47.2 µM (inactive)
GI50 (RXF 393): 8.39 µM (inactive) and 16 µM (inactive)
GI50 (HL-60): 12.3 µM (inactive) and 8.43 µM (inactive)
GI50 (SNB-19): 19.4 µM (inactive) and 20.1 µM (inactive)
GI50 (NCI-H460): 22.4 µM (inactive) and 23.2 µM (inactive)
GI50 (OVCAR-5): 48.9 µM (inactive) and 51.8 µM (inactive)
GI50 (RPMI-8226): 23.9 µM (inactive) and 32.4 µM (inactive)
GI50 (A498): 18.3 µM (inactive) and 16.5 µM (inactive)
GI50 (NCI-H522): 27.7 µM (inactive) and 21 µM (inactive)
GI50 (HOP-92): 17.7 µM (inactive) and 33 µM (inactive)
GI50 (SK-OV-3): 16.4 µM (inactive) and 19.3 µM (inactive)
GI50 (MDA-MB-231): 14000 nM (inactive)
GI50 (MOLT-4): 24.4 µM (inactive) and 26.5 µM (inactive)
GI50 (K562): 6.59 µM (inactive) and 6.53 µM (inactive)
GI50 (SF-539): 17.9 µM (inactive) and 20.9 µM (inactive)
GI50 (T47D): 25500 nM (inactive)
GI50 (LXFL 529): 45.5 µM (inactive) and 30.1 µM (inactive)
GI50 (M14): 32.3 µM (inactive) and 22.6 µM (inactive)
GI50 (MDA-N): 2710 nM (inactive)
GI50 (NCI-H226): 19.1 µM (inactive) and 17.9 µM (inactive)
GI50 (CCRF-CEM): 68.4 µM (inactive) and 46.2 µM (inactive)
GI50 (MDA-MB-435): 2820 nM (inactive)
GI50 (COLO 205): 46.3 µM (inactive) and 31.4 µM (inactive)
GI50 (OVCAR-4): 22 µM (inactive) and 16.5 µM (inactive)
GI50 (DLD-1): 35 µM (inactive) and 24.1 µM (inactive)
GI50 (OVCAR-8): 16.4 µM (inactive) and 20.8 µM (inactive)
GI50 (DMS-114): 27.3 µM (inactive) and 18.5 µM (inactive)
GI50 (SK-MEL-5): 14.2 µM (inactive) and 10.5 µM (inactive)
GI50 (SK-MEL-2): 16.4 µM (inactive) and 17.9 µM (inactive)
GI50 (NCI/ADR-RES): 17 µM (inactive)
GI50 (HOP-18): 13.2 µM (inactive) and 15.1 µM (inactive)
GI50 (U-251): 14.7 µM (inactive) and 17.3 µM (inactive)
GI50 (UO-31): 19.4 µM (inactive) and 19.6 µM (inactive)
GI50 (NCI-H23): 35.9 µM (inactive) and 24 µM (inactive)
GI50 (ACHN): 23.7 µM (inactive) and 23.5 µM (inactive)
GI50 (SNB-78): 30 µM (inactive) and 48.6 µM (inactive)
GI50 (A549): 19.8 µM (inactive) and 29.2 µM (inactive)
GI50 (OVCAR-3): 15.3 µM (inactive) and 17.9 µM (inactive)
GI50 (KM12): 11 µM (inactive) and 16.6 µM (inactive)
GI50 (DU-145): 53700 nM (inactive)
GI50 (HCT-116): 13.9 µM (inactive) and 15.8 µM (inactive)
GI50 (SR): 6120 nM (inactive)
GI50 (786-0): 24 µM (inactive) and 17.4 µM (inactive)
GI50 (SF-295): 37.5 µM (inactive) and 21.9 µM (inactive)
GI50 (PC-3): 27400 nM (inactive)
GI50 (LOX IMVI): 24.8 µM (inactive) and 33.8 µM (inactive)

COC(C(=O)C(O)C(C)O)C1Cc2cc3cc(OC4CC(OC(C)=O)C(OC5CC(O)C(OC)C(C)O5)C(C)O4)cc(O)c3c(O)c2C(=O)C1OC1CC(OC2CC(OC3CC(C)(O)C(OC(=O)C(C)C)C(C)O3)C(O)C(C)O2)C(O)C(C)O1 (configuration not stated)
GI50 (XF498): < 10 nM (active) and 8.95 nM (active)
GI50 (Malme-3M): 23.8 nM (active) and < 13.5 nM (active)
GI50 (EKVX): 10.2 nM (active) and < 10 nM (active)
GI50 (BT-549): 20.2 nM (active)
GI50 (MCF7): < 10 nM (active) and 9.16 nM (active)
GI50 (SK-MEL-28): < 10 nM (active) and 18.5 nM (active)
GI50 (Hs-578T): 36.6 nM (active)
GI50 (NCI-H460): 9.82 nM (active) and < 10 nM (active)
GI50 (UACC-62): < 10 nM (active) and 16.2 nM (active)
GI50 (A498): 14.5 nM (active) and 8.43 nM (active)
GI50 (NCI-H522): 15.6 nM (active) and < 10 nM (active)
GI50 (SK-OV-3): 210 nM (active) and 166 nM (active)
GI50 (SNB-75): < 10 nM (active) and 19.1 nM (active)
GI50 (MDA-MB-231): 62.7 nM (active)
GI50 (DMS-273): < 10 nM (active) and 16.9 nM (active)
GI50 (SF-539): 16.1 nM (active) and < 10 nM (active)
GI50 (T47D): 124 nM (active)
GI50 (MDA-N): 112 nM (active)
GI50 (MDA-MB-435): 85.5 nM (active)
GI50 (DLD-1): 44.3 nM (active) and 50.7 nM (active)
GI50 (SK-MEL-5): 20.1 nM (active) and < 17.8 nM (active)
GI50 (SK-MEL-2): 8.91 nM (active) and < 10 nM (active)
GI50 (NCI/ADR-RES): > 60.8 µM (inactive) and 51.9 µM (inactive)
GI50 (HOP-18): < 10 nM (active)
GI50 (UO-31): 938 nM (active) and 1.19 µM (inactive)
GI50 (UACC-257): 13.9 nM (active) and 26.3 nM (active)
GI50 (NCI-H23): < 17.8 nM (active) and 15.4 nM (active)
GI50 (HCT-15): 800 nM and 935 nM
GI50 (SNB-78): 29.1 nM (active) and 24.1 nM (active)
GI50 (A549): 10.9 nM (active) and 9.48 nM (active)
GI50 (DU-145): 101 nM (active)
GI50 (HCT-116): < 18.4 nM (active) and < 10 nM (active)
GI50 (SW-620): 15.6 nM (active) and 16.2 nM (active)
GI50 (PC-3): 201 nM (active)
